# Legend:
# [1] = system: bloodstream T. brucei resistant lines R1-R3; assay: Sensitivity of compound 2-resistant T. brucei lines compared to wild-type; assay type: cell-based, Trypanosoma brucei
# Procedure: To gain further insight into the molecular target(s) of this series, resistance was generated against compound 2 in a drug-sensitive clonal line of bloodstream T. brucei. Trypanosomes were cultured in the continuous presence of compound 2 for a total of 122 days. […] Following drug selection, resistant parasites were cloned by limiting dilution. The relative sensitivities of these cloned cell lines were established and compared to that of wild-type parasites. Resistant lines R1 and R3 were 10-fold resistant, while R2 was 90-fold resistant to compound 2 (Figure 4A). […] In addition, all three clones had lost a significant part of chromosome 10 and gained additional copies of a region of chromosome 8. All three resistant lines carried a mutation in Tb927.4.4590, a gene encoding a non-essential putative kinase and in Tb927.11.10300, encoding a hypothetical protein. Of particular note, all three clones (R1–3) shared a non-synonymous substitution (Gly492Ala) in Tb927.11.12310, the gene encoding CRK12. In addition, R2 harbored a second non-synonymous substitution (Leu482Phe) in CRK12 (Table S10). […]
# in cattle). Blood from the donor animals, diluted with phosphate buffered glucose was used to infect recipient animals IV via the jugular vein. Infection was with approximately 100,000 fresh viable parasites. The compounds were given IM. Each injection was up to 10 mL and given in neck in the following order: left anterior third, right anterior third, left posterior third and right posterior third.
# Animals over 240 kg required a fifth injection site for the IVP, and this was given in the left or right hind leg. Cattle were randomised to treatments. Parasitaemia was monitored 3 times per calendar week, though collection of blood and assessment of clinical symptoms. Blood samples were also […]
# treatment). Cattle were also monitored for PCV, clinical symptoms, body weight and temperature […]
# 4. Mode of action studies
# 4.1 Resistant line generation […]
# Sequencing reads (100 bp) were aligned to the Trypanosoma brucei TREU927 genome (v39; tritrypDB) using Bowtie210 and Samtools11 software. […]
# [2] = system: T. brucei CRK12 (Tb927.11.12310) edited parasites; assay: Sensitivity of CRISPR-Cas9-edited CRK12 T. brucei compared to wild-type; assay type: cell-based, Trypanosoma brucei
# Source text: Three unbiased and independent approaches converged to identify CRK12 as the likely target of compound 2. Next, we used CRISPR-Cas9 precision base editing to interrogate the role of CRK12-related mutations in resistance.[16] A codon-targeted saturation mutagenesis strategy was used to investigate mutations that could support resistance to compound 2 at positions 482 or 492. This was achieved using repair templates randomized (NNN) in these specific positions. […] These edited parasites were 133-fold less sensitive to compound 2 compared to wild-type parasites. In contrast, several different amino acids (Ile, Gln, Met, and Val) were tolerated in position 492. Each mutation conferred differing levels of resistance to compound 2, for instance, parasites bearing a Gly492Val edit were eightfold more tolerant to the compound than wild-type cells, while a Gly492Gln mutation led to 32-fold resistance (Figure 4B); parasites bearing a Gly492Ile or a Gly492Met edit behaved similarly to parasites bearing a Gly492Gln edit. […] This is most likely explained by the pronounced growth defect associated with all three of our resistant clones (R1–3) that harbor this specific mutation. […]
# overall quality score (QUAL) was >100. Artemis13 was used to analyse chromosome and gene copy number variation (CNV), as well as visualisation of SNPs.
# 4.3 RIT-seq screening, Illumina sequencing and analysis
# The RIT-seq library screening was performed as described previously.14 The RNAi library was maintained with blasticidin (1 µg ml-1) and phleomycin (1 µg ml-1) at a minimum of 2 x 10^7 cells. […]
# Reads were mapped to the T. brucei 927 reference genome (v39; TriTrypDB [http://tritrypdb.org/]) using Bowtie 2 software,10 with the following parameter: --very-sensitive-local. Following manipulation with SAMtools11 the alignment files were searched with a custom script to identify reads with the following barcode: GCCTCGCGA.14 The total and barcoded reads were then quantified using the Artemis genome browser.15 […]
structure (smiles),measurement,setting,value
"CC(C)CS(=O)(=O)N[C@H]1CC[C@H](Nc2nc(N)c(C(=O)c3c(F)cc(CN(C)C)cc3F)s2)CC1 [Compound 2, N-(trans)-[4-[[4-Amino-5-[4-(dimethylaminomethyl)-2,6-difluoro-benzoyl]thiazol-2-yl]amino]cyclohexyl]-2-methyl-propane-1-sulfonamide]",Resistance compared to wild-type,[1]; resistant line R1,10 fold
same,Resistance compared to wild-type,[1]; resistant line R2,90 fold
same,Resistance compared to wild-type,[1]; resistant line R3,10 fold
same,Resistance compared to wild-type,[2]; CRK12 Gly492Gln edit,32 fold
same,Tolerance compared to wild-type,[2]; CRK12 Gly492Val edit,eightfold
same,Loss of sensitivity compared to wild-type,[2]; CRK12 Leu482Phe edit,133 fold

# Source: article PMC9014415, “Repositioning of a Diaminothiazole Series Confirmed to Target the Cyclin-Dependent Kinase CRK12 for Use in the Treatment of African Animal Trypanosomiasis” (Journal of Medicinal Chemistry, 2022)
